In data set [1] the target is T1, SAT from Salmonella enterica serovar Typhimurium (Salmonella typhimurium, UniProt P29847).
T1 construct: trxA (thioredoxin) fusion; made in house
Put plainly: StSAT enzyme activity assay (spectrophotometric indirect assay with Ellman's reagent). The settings on record: for inhibition at 1000 µM: compound at fixed 1 mM, both substrates equal to Km, 5% DMSO. In kind it is biochemical. On the procedure:
Since the primary structure of SAT is highly conserved among bacteria, [38] the virtual screening of our in-house library was performed using the available crystal structures of EcSAT (pdb code: 1T3D) and HiSAT (pdb code: 1SSM), setting the experimental parameters as previously reported by us. After this preliminary analysis, a total of 7 compounds were identified and selected to be evaluated on the recombinant enzyme from S. typhimurium. The enzyme used in these assays has a Km,Ser = 1.07 ± 0.15 mM, a Km,AcCoA = 0.17 ± 0.04 mM, kcat = 3813 ± 169 min^−1 [37].
SAT from Salmonella enterica serovar Typhimurium was expressed as trxA fusion protein as previously described and was more than 95% pure based on SDS-PAGE analysis. The enzyme activity was measured by a spectrophotometric indirect assay that exploits the signal at 412 nm generated by 5,5’-Dithiobis(2-nitrobenzoic acid (Ellmn’s reagent) reduction by the reaction product coenzyme A [37]. A total of 5% DMSO was present in all the assays and was proven not to perturb enzyme activity (data not shown). The concentration of substrates was set equal to Km in order to improve the sensitivity of the assay for both competitive and uncompetitive mechanism of inhibition. The dependence of the relative reaction rate on the concentration of compounds was fitted to Equation (1) to calculate the IC50: vi/v0=1/1+[I]/IC50
The inhibition mechanism was determined by fitting the dependence of the initial reaction rate on the concentration of acetyl CoA (at fixed, 1 mM L-Ser concentration) in the presence of different concentrations of inhibitor ( 1/3IC50≥[inhibitor]≤3IC50 ) to the equation for competitive, uncompetitive and non-competitive mechanisms. The equation that fits a competitive mechanism (Equation (2)) was used to calculate Ki for compound 5: v0=Vmax·[acetyl−CoA]/[acetyl−CoA]+(Km·α) where α=1+([comp5]/Ki) .

A short description of data set [2]: Chemical stability in DMSO solution by 1H NMR at different time points. In kind it is physicochemical. The note with it: 5 mg in 500 μL DMSO-d6, room temperature. On the procedure: Upon noticing changes in the appearance of the DMSO solution over time at room temperature, we deemed it of interest to investigate the chemical stability of the compounds. Therefore, in order to evaluate it, ^1H NMR analysis at different time points (1 h, 2.5 h, and 20 h) of the DMSO solution (5 mg in 500 μL of DMSO-d6) was performed (Supporting Information). Since the time required to observe changes in the colour of the solution was dependent of the substituent at position R2 of series 22, to establish the effect of the substituent on the overall stability of the compound, analogue 22a (R2 = phenyl) which contains the non-substituted phenyl group, analogue 22b (R2 = 3,5-dichlorophenyl), substituted with an EWG and analogue 22d (R2 = 3,5-dimethylphenyl) substituted with an electron donating group (EDG) were selected to perform the chemical stability studies. The stability of the compounds increases in the following order: 22b (stability in DMSO < 2.5 h) < 22a (stability in DMSO < 20 h) < 22d (stability in DMSO < 7 days). Thus, it is possible to conclude that EWGs like the simple phenyl or the phenyl replaced with two chlorines produce fewer stable molecules. On the other hand, the phenyl replaced with EDGs contributes to the overall stability of the molecule. It is hypothesised that the mild oxidative properties of DMSO are able to interfere with the oxazole scaffold, which leads to the opening of the ring and then full degradation of the compound in study.

The subject of data set [3] is M. tuberculosis. Set-up: method as in PMID 28749666. The note with it: cited from earlier work.
For data set [4], the system named is S. Typhimurium ATCC14028. The data set can be described thus: Minimal Inhibitory Concentration (MIC) assay. Format: cell-based.
The subject of data set [5] is E. coli ATCC25922. Put plainly: Minimal Inhibitory Concentration (MIC) assay. The settings on record: Escherichia coli; E. coli ATCC25922, Mueller Hinton broth (MHB). In kind it is cell-based.
Data set [6] relates to StOASS. On the set-up: method as in PMID 26894308. The note with it: cited from earlier work.
Setting [7] is: Table 3, synthesised compounds, read-out: StSAT IC50.
[8] abbreviates: Table 2, analogues of compound 5, * = estimated due to solubility issues, read-out: IC50.
[9] abbreviates: values as quoted in the SAR discussion text, read-out: IC50.
Setting [10] is: StSAT IC50, Table 3, synthesised compounds.

The term IC50 denotes the concentration needed to halve the response being measured. By inhibition is commonly meant how much of the control response was suppressed. Low readings indicate little suppression, high ones strong suppression. In general, Ki refers to a measure of affinity in units of concentration, obtained from inhibition or displacement. One may read the MIC as the lowest concentration that inhibits growth of the organism. A high value points to a need for much substance.

SMILES strings stand for the structures. “Also recorded” adds a separate entry of the source. Where two headings read alike, the source gives them in different places.

T1 sequence (P29847 whole entry, the tested form may be a part): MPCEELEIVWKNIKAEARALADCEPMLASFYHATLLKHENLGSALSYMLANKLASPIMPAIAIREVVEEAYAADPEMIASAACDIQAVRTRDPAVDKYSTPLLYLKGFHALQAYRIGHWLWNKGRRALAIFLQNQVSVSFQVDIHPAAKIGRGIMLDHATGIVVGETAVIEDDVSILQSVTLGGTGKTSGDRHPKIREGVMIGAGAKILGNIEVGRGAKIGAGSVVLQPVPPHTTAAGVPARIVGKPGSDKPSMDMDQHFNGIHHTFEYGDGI

As to `CCOC(=O)c1cc(-c2coc(Nc3cc(Cl)cc(Cl)c3)n2)on1` [Compound 21b, Ethyl 5-(2-((3,5-dichlorophenyl)amino)oxazol-4-yl)isoxazole-3-carboxylate], in data set [1] (setting [7]), the IC50 came out at 0.00252 ± 3e-05 mM.

For the molecule `COc1ccc(-c2cc(-c3csc(Nc4ccc(C)cc4)n3)on2)cc1` [Compound 9], the IC50 in data set [1] (setting [8]) was 0.012 ± 0.002 mM.

Molecule `CCn1c2ccccc2c2cc(CNC)ccc21` [Compound 6] showed an inhibition at 1000 µM in data set [1] of 23.6%.

Consider `Cc1ccc(Nc2nc(-c3cc(C(=O)O)no3)co2)cc1` [Compound 18], for which, in data set [1] (18 vs. 5, from IC50), the “improvement in the affinity compared to the 2-aminothiazole counterpart” value is given as greater than 40 fold. The IC50 in data set [1] (setting [9]) stood at 0.0026 mM.

For `O=C(O)c1cc(-c2coc(Nc3ccncc3)n2)on1` [Compound 22e, 5-(2-(pyridin-4-ylamino)oxazol-4-yl)isoxazole-3-carboxylic acid], the concentration for half-maximal inhibition (IC50) in data set [1] (setting [7]) came to 0.012 ± 0.00125 mM.

In data set [1] (setting [10]), `O=C(O)c1cc(-c2coc(Nc3ccccc3)n2)on1` [Compound 22a, 5-(2-(phenylamino)oxazol-4-yl)isoxazole-3-carboxylic acid] showed an IC50 of 0.00154 ± 0.00033 mM. For the same molecule, the “stability in DMSO” value in data set [2] was less than 20 h.

Take `Cc1ccc(Nc2nc(-c3cc(C(=O)Nc4ccccc4)no3)cs2)cc1` [Compound 13]: the IC50 was 0.016 ± 0.003 mM in data set [1] (setting [8]) and 0.0163 mM in data set [1] (setting [9]).

Take `Cc1ccc(Nc2nc(-c3ccncc3)cs2)cc1` [Compound 8]: the IC50 in data set [1] (setting [8]) was greater than 0.4 mM.

Take `CC1CN(C(=O)c2cc3ccccc3[nH]2)CC(C)N1` (centres unmarked) [Compound 3]: in data set [1], at 1000 µM the inhibition was 31.4 ± 5%.

With `Cn1nc(C(=O)O)cc1-c1csc(Nc2cc(Cl)cc(Cl)c2)n1` [Compound 17], in data set [1] (setting [8]), the IC50 was 0.021 ± 0.005 mM.

`CNC(=O)c1cc(-c2csc(Nc3ccc(C)cc3)n2)on1` [Compound 12]: the IC50 in data set [1] (setting [9]) amounted to 0.06 mM.

In turn, `O=C(O)C1C2C=CC(C2)C1C(=O)O` (centres unmarked) [Compound 2] had an inhibition at 1000 µM in data set [1] of 34.9 ± 6%.

In data set [1] (setting [10]), `O=C(O)c1cc(-c2coc(Nc3cc(Cl)cc(Cl)c3)n2)on1` [Compound 22b, 5-(2-((3,5-dichlorophenyl)amino)oxazol-4-yl)isoxazole-3-carboxylic acid] yielded an IC50 of 0.00803 ± 0.00018 mM. For the same molecule, the “stability in DMSO” value in data set [2] is less than 2.5 h.

As for `CCOC(=O)c1cc(-c2csc(Nc3cc(Cl)cc(Cl)c3)n2)on1` [Compound 15], in data set [1] (setting [8]), the IC50 was 0.018 ± 0.002 mM.

For `Cc1ccc(Nc2nc(-c3cc(C(=O)O)no3)cs2)cc1` [Compound 5], the 50% inhibitory concentration (IC50) in data set [1] (Table 1, virtual screening hits, substrates equal to Km, read-out: IC50) came out at 0.11 mM. This molecule came in with a Ki in data set [1] (competitive towards acetyl-CoA, fixed 1 mM L-Ser) of 64 ± 12 µM. In addition, the Mechanism result in data set [1] (inhibition mechanism, varied acetyl CoA at fixed 1 mM L-Ser) is on record as “competitive inhibitor; also recorded: Competitive with AcCoA”. Besides, in data set [3], the “activity toward M. tuberculosis” value was “inactive”.

Take `CC(=O)NC(C(=O)O)C(=O)O` [Compound 4]: the inhibition at 1000 µM in data set [1] came to 18.7 ± 6%.

On to `Cc1ccc(Nc2nc(-c3cc(C(N)=O)no3)cs2)cc1` [Compound 11], for which the 50% inhibitory concentration (IC50) in data set [1] (setting [8]) was 0.026 ± 0.004 mM.

In the case of `CCOC(=O)c1cc(-c2coc(Nc3ccc(C)cc3)n2)on1` [Compound 19], the results for the IC50 in data set [1] (setting [8]) and in data set [1] (setting [9]) were 0.007 ± 0.002 mM and 0.0073 mM, respectively.

For the molecule `CCOC(=O)c1cc(-c2coc(Nc3ccc(F)cc3)n2)on1` [Compound 21c, Ethyl 5-(2-((4-fluorophenyl)amino)oxazol-4-yl)isoxazole-3-carboxylate], the IC50 in data set [1] (setting [7]) turned out to be 0.00304 ± 0.00037 mM.

Consider `O=C(O)c1cc(-c2csc(Nc3cc(Cl)cc(Cl)c3)n2)on1` [Compound 20], for which the IC50 in data set [1] (setting [8]) is 0.011 ± 0.001 mM.

As for `O=C(O)[C@H]1C[C@@H]1c1ccccc1` [Compound 7], the inhibition at 1000 µM in data set [1] is greater than 40%. Also, the IC50 in data set [1] (virtual screening hit, value printed in mM (μM), read-out: IC50) is greater than 2 mM.

On to `CCOC(=O)c1cc(-c2csc(Nc3ccc(C)cc3)n2)on1` [Compound 14], for which the IC50 in data set [1] (setting [8]) is roughly 0.01 mM; in data set [1] (setting [9]), 0.01 mM.

Regarding `Cc1ccc(C(=O)O)c(N)n1` [Compound 1], in data set [1], 1000 µM produced 19.4 ± 1% inhibition.

As to `O=C(O)c1cc(-c2coc(Nc3ccc(F)cc3)n2)on1` [Compound 22c, 5-(2-((4-fluorophenyl)amino)oxazol-4-yl)isoxazole-3-carboxylic acid], in data set [1] (setting [7]), the IC50 was 0.00251 ± 0.00034 mM.

As to `Cc1ccc(Nc2nc(-c3cc(C(=O)NC45CC6CC(CC(C6)C4)C5)no3)cs2)cc1` [Compound 10], the IC50 in data set [1] (setting [8]) was 0.009 ± 0.003 mM.

For `CCOC(=O)c1cc(-c2coc(Nc3ccccc3)n2)on1` [Compound 21a, Ethyl 5-(2-(phenylamino)oxazol-4-yl)isoxazole-3-carboxylate], in data set [1] (setting [7]), the IC50 stood at 0.00268 ± 0.00027 mM.

`Cc1cc(C)cc(Nc2nc(-c3cc(C(=O)O)no3)co2)c1` [Compound 22d, 5-(2-((3,5-dimethylphenyl)amino)oxazol-4-yl)isoxazole-3-carboxylic acid]: the minimal inhibitory concentration (MIC) in data set [4] (S. Typhimurium ATCC14028, M9 medium deprived of cysteine) was greater than 128 µM; in data set [4] (Salmonella enterica, S. Typhimurium ATCC14028, Mueller Hinton broth (MHB)), greater than 128 µM; in data set [5], greater than 128 µM. In addition, the IC50 in data set [1] (setting [7]) turned out to be 0.00424 ± 0.00011 mM. In data set [2], the “stability in DMSO” value was less than 170 h.

Regarding `Cc1ccc(CC2(C(=O)O)CC2c2ccccc2)cc1` (centres unmarked) [UPAR415], the “mechanism of OASS inhibition” value in data set [6] was “competitive inhibitor”.

Turning to `Cc1ccc(Nc2nc(-c3cc(C(=O)O)nn3C)cs2)cc1` [Compound 16], the IC50 in data set [1] (setting [8]) was 0.184 ± 0.013 mM.

Consider `CCOC(=O)c1cc(-c2coc(Nc3ccncc3)n2)on1` [Compound 21e, Ethyl 5-(2-(pyridin-4-ylamino)oxazol-4-yl)isoxazole-3-carboxylate], for which the IC50 in data set [1] (setting [7]) came to 0.00395 ± 0.00065 mM.

Source of the values: article PMC7931047, “Discovery of Substituted (2-Aminooxazol-4-yl)Isoxazole-3-carboxylic Acids as Inhibitors of Bacterial Serine Acetyltransferase in the Quest for Novel Potential Antibacterial Adjuvants” (Pharmaceuticals, 2021).
